Consider 33 compounds from US10508088B2, “Methods using HDAC11 inhibitors” (FORMA Therapeutics, Inc., priority 2016, dated 2019).

Where only a bound is given, the exact number is not on record here.

Chain of Full length human recombinant HDAC11 (Q96DB2 whole entry): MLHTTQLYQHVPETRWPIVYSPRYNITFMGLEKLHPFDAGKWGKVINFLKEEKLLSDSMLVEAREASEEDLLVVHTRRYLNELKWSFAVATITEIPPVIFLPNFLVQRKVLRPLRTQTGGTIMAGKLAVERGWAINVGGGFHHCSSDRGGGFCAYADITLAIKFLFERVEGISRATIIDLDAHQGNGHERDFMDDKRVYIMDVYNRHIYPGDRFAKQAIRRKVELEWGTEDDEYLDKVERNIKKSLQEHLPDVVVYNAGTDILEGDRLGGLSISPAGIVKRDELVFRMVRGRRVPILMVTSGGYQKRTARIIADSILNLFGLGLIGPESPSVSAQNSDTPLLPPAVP

This experiment deals with Full length human recombinant HDAC11 (Homo sapiens (Human), UniProt Q96DB2). Briefly: Enzymatic HDAC11 assay, electrophoretic mobility shift. In kind it is biochemical. Particulars: substrate FAM-RHKK(tri-fluor-Ac)-NH2, read-out: HDAC11 IC50 Range. The method, then:
The enzymatic HDAC11 assay was performed using electrophoretic mobility shift assay. Full length human recombinant HDAC11 protein was expressed in baculoviral system and purified by affinity chromatography. The enzymatic reactions were assembled in 384 well plates in a total volume of 25 μL in a reaction buffer composing: 100 mM HEPES, pH 7.5, 25 mM KCl, 0.1% bovine serum albumin, 0.01% Triton X-100, 1% DMSO (from compounds) 2 μM of the fluorescently labeled peptide substrate and enzyme. The enzyme was added at a final concentration of 10 nM. The peptide substrate FAM-RHKK(tri-fluor-Ac)-NH2 was used. The compounds were tested at 12 concentrations spaced by 3× dilution intervals. Negative control samples (0%-inhibition in the absence of inhibitor) and positive control samples (100%-inhibition) were assembled in replicates of four in each assay plate. The reactions were incubated at 25° C. and quenched by the addition of 45 μL of termination buffer (100 mM HEPES, pH 7.5, 0.01% Triton X-100, 0.05% SDS).
The terminated assay plates were analyzed on LabChip® 3000 microfluidic electrophoresis instrument (Perkin Elmer/Caliper Life Sciences). The fluorescence intensity of the electrophoretically separated de-acetylated product and substrate peptide was measured. Activity in each sample was determined as the product to sum ratio (PSR):P/(S+P), where P is the peak height of the product peptide and S is the peak height of the substrate peptide. Percent inhibition (Pinh) is determined using the following equation: Pinh=(PSR0%−PSRinh)/(PSR0%−PSR100%)*100,
where PSRinh is the product sum ratio in the presence of inhibitor, PSR0% is the average product sum ration in the absence of inhibitor and PSR100% is the average product sum ratio in 100%-inhibition control samples. The IC50 values of inhibitors were determined by fitting the percent inhibition curves with 4 parameter dose-response model using XLfit 4 software.
For orientation: In EMSA bound probe runs differently from free probe, usually more slowly.
For orientation: IC50 means the concentration needed to halve the response being measured. Consider `O=C(NO)c1cccc2c1CC1(CCN(Cc3csc(-c4ccccc4)n3)C1=O)C2` (stereo not drawn) [II-34, N-hydroxy-2′-oxo-1′-((2-phenylthiazol-4-yl)methyl)-1,3-dihydrospiro[indene-2,3′-pyrrolidine]-4-carboxamide], for which the IC50 is more than 1000 nM.

Regarding `O=C(NO)c1cccc2c1CC1(CCN(Cc3ccc(F)cc3F)C1=O)C2` (stereo not drawn) [II-35, 1′-(2,4-difluorobenzyl)-N-hydroxy-2′-oxo-1,3-dihydrospiro[indene-2,3′-pyrrolidine]-4-carboxamide], the half-maximal inhibitory concentration (IC50) is more than 1000 nM.

Regarding `COc1ccccc1CN1CCC2(Cc3cccc(C(=O)NO)c3C2)C1=O` (stereo not drawn) [II-36, N-hydroxy-1′-(2-methoxybenzyl)-2′-oxo-1,3-dihydrospiro[indene-2,3′-pyrrolidine]-4-carboxamide], the IC50 is more than 1000 nM. Take `O=C(NO)c1cccc2c1CC1(CCN(Cc3ccccc3-c3ccccc3)C1=O)C2` (stereo not drawn) [II-37, 1′-([1,1′-biphenyl]-2-ylmethyl)-N-hydroxy-2′-oxo-1,3-dihydrospiro[indene-2,3′-pyrrolidine]-4-carboxamide]: the IC50 was less than 500 nM.

For the compound `O=C(NO)c1cccc2c1CC1(CCN(Cc3ccc(Cl)c(Cl)c3)C1=O)C2` (stereo not drawn) [II-38, 1′-(3,4-dichlorobenzyl)-N-hydroxy-2′-oxo-1,3-dihydrospiro[indene-2,3′-pyrrolidine]-4-carboxamide], the IC50 was less than 500 nM. For `Cc1ccc(CN2CCC3(Cc4cccc(C(=O)NO)c4C3)C2=O)cc1C` (stereo not drawn) [II-39, 1′-(3,4-dimethylbenzyl)-N-hydroxy-2′-oxo-1,3-dihydrospiro[indene-2,3′-pyrrolidine]-4-carboxamide], the IC50 was in the range of 500 to 1000 nM. Turning to `COc1cc(CN2CCC3(Cc4cccc(C(=O)NO)c4C3)C2=O)cc(OC)c1` (stereo not drawn) [II-40, 1′-(3,5-dimethoxybenzyl)-N-hydroxy-2′-oxo-1,3-dihydrospiro[indene-2,3′-pyrrolidine]-4-carboxamide], the IC50 is more than 1000 nM. As to `O=C(NO)c1cccc2c1CC1(CCN(Cc3ccc(OCc4ccccc4)cc3)C1=O)C2` (stereo not drawn) [II-41, 1′-(4-(benzyloxy)benzyl)-N-hydroxy-2′-oxo-1,3-dihydrospiro[indene-2,3′-pyrrolidine]-4-carboxamide], the IC50 was less than 500 nM.

For the compound `O=C(NO)c1cccc2c1CC1(CCN(Cc3cccc(OC(F)(F)F)c3)C1=O)C2` (stereo not drawn) [II-42, N-hydroxy-2′-oxo-1′-(3-(trifluoromethoxy)benzyl)-1,3-dihydrospiro[indene-2,3′-pyrrolidine]-4-carboxamide], the half-inhibitory concentration (IC50) was less than 500 nM.

For `O=C(NO)c1cccc2c1CC1(CCN(Cc3cccc(C(F)(F)F)c3F)C1=O)C2` (stereo not drawn) [II-43, 1′-(2-fluoro-3-(trifluoromethyl)benzyl)-N-hydroxy-2′-oxo-1,3-dihydrospiro[indene-2,3′-pyrrolidine]-4-carboxamide], the IC50 is less than 500 nM. As for `O=C(NO)c1cccc2c1CC1(CCN(CC3CCCCC3)C1=O)C2` (stereo not drawn) [II-44, 1′-(cyclohexylmethyl)-N-hydroxy-2′-oxo-1,3-dihydrospiro[indene-2,3′-pyrrolidine]-4-carboxamide], the IC50 is more than 1000 nM. Take `O=C(NO)c1cccc2c1CC1(CCN(Cc3cc(Cl)ccc3Cl)C1=O)C2` (stereo not drawn) [II-45, 1′-(2,5-dichlorobenzyl)-N-hydroxy-2′-oxo-1,3-dihydrospiro[indene-2,3′-pyrrolidine]-4-carboxamide]: the IC50 was in the range of 500 to 1000 nM. Consider `O=C(NO)c1cccc2c1CC1(CCN(Cc3cc(-c4ccccc4)no3)C1=O)C2` (stereo not drawn) [II-46, N-hydroxy-2′-oxo-1′-((3-phenylisoxazol-5-yl)methyl)-1,3-dihydrospiro[indene-2,3′-pyrrolidine]-4-carboxamide], for which the IC50 is more than 1000 nM. The value for `O=C(NO)c1cccc2c1CC1(CCN(Cc3ccc(-n4cccn4)nc3)C1=O)C2` (stereo not drawn) [II-47, 1′-((6-(1H-pyrazol-1-yl)pyridin-3-yl)methyl)-N-hydroxy-2′-oxo-1,3-dihydrospiro[indene-2,3′-pyrrolidine]-4-carboxamide] was more than 1000 nM; that for `O=C(NO)c1cccc2c1CC1(CCN(Cc3ccc(C(F)(F)F)nc3)C1=O)C2` (stereo not drawn) [II-48, N-hydroxy-2′-oxo-1′-((6-(trifluoromethyl)pyridin-3-yl)methyl)-1,3-dihydrospiro[indene-2,3′-pyrrolidine]-4-carboxamide] was more than 1000 nM.

As to `O=C(NO)c1cccc2c1CC1(CCN(Cc3noc(C4CCOCC4)n3)C1=O)C2` (stereo not drawn) [II-49, N-hydroxy-2′-oxo-1′-((5-(tetrahydro-2H-pyran-4-yl)-1,2,4-oxadiazol-3-yl)methyl)-1,3-dihydrospiro[indene-2,3′-pyrrolidine]-4-carboxamide], the IC50 is more than 1000 nM. Consider `Cc1noc(C)c1CN1CCC2(Cc3cccc(C(=O)NO)c3C2)C1=O` (stereo not drawn) [II-50, 1′-((3,5-dimethylisoxazol-4-yl)methyl)-N-hydroxy-2′-oxo-1,3-dihydrospiro[indene-2,3′-pyrrolidine]-4-carboxamide], for which the IC50 was more than 1000 nM. The value for `O=C(NO)c1cccc2c1CC1(CCN(Cc3cccc(C(F)(F)F)n3)C1=O)C2` (stereo not drawn) [II-51, N-hydroxy-2′-oxo-1′-((6-(trifluoromethyl)pyridin-2-yl)methyl)-1,3-dihydrospiro[indene-2,3′-pyrrolidine]-4-carboxamide] was more than 1000 nM.

Turning to `O=C(NO)c1cccc2c1CC1(CCN(CCN3CCOCC3)C1=O)C2` (stereo not drawn) [II-52, N-hydroxy-1′-(2-morpholinoethyl)-2′-oxo-1,3-dihydrospiro[indene-2,3′-pyrrolidine]-4-carboxamide], the IC50 was more than 1000 nM.

On to `O=C(NO)c1cccc2c1CC1(CCN(Cc3cn(-c4ccccc4)nn3)C1=O)C2` (stereo not drawn) [II-53], for which the IC50 is more than 1000 nM. Turning to `O=C(NO)c1cccc2c1CC1(CCN(CC3CC3)C1=O)C2` (stereo not drawn) [II-55, 1′-(cyclopropylmethyl)-N-hydroxy-2′-oxo-1,3-dihydrospiro[indene-2,3′-pyrrolidine]-4-carboxamide], the concentration for half-maximal inhibition (IC50) is more than 1000 nM. The value for `O=C(NO)c1cccc2c1CC1(CCN(Cc3ccc(C(F)(F)F)cc3)C1)C2` (stereo not drawn) [II-56, N-hydroxy-1′-(4-(trifluoromethyl)benzyl)-1,3-dihydrospiro[indene-2,3′-pyrrolidine]-4-carboxamide] was 500 to 1000 nM; that for `O=C(NO)c1cccc2c1CC1(CCN(C3CC3)C1)C2` (stereo not drawn) [II-57, 1′-cyclopropyl-N-hydroxy-1,3-dihydrospiro[indene-2,3′-pyrrolidine]-4-carboxamide] was more than 1000 nM; that for `O=C(NO)c1cccc2c1CC1(CCN(C(=O)c3ccc(C(F)(F)F)cc3)C1)C2` (stereo not drawn) [II-58, N-hydroxy-1′-(4-(trifluoromethyl)benzoyl)-1,3-dihydrospiro[indene-2,3′-pyrrolidine]-4-carboxamide] was more than 1000 nM. The value for `CC(=O)N1CCC2(Cc3cccc(C(=O)NO)c3C2)C1` (stereo not drawn) [II-59, 1′-acetyl-N-hydroxy-1,3-dihydrospiro[indene-2,3′-pyrrolidine]-4-carboxamide] was more than 1000 nM. Turning to `CC(=O)N1CCC2(CC1)Cc1cccc(C(=O)NO)c1C2` [II-60, 1′-acetyl-N-hydroxy-1,3-dihydrospiro[indene-2,4′-piperidine]-4-carboxamide], the IC50 was more than 1000 nM. Consider `O=C(NO)c1cccc2c1CC1(CCN(C(=O)c3ccc(Cl)cc3)CC1)C2` [II-61, 1′-(4-chlorobenzoyl)-N-hydroxy-1,3-dihydrospiro[indene-2,4′-piperidine]-4-carboxamide], for which the IC50 was more than 1000 nM. In the case of `O=C(NO)c1cccc2c1CC1(CCN(Cc3ccc(Cl)cc3)CC1)C2` [II-62, 1′-(4-chlorobenzyl)-N-hydroxy-1,3-dihydrospiro[indene-2,4′-piperidine]-4-carboxamide], the IC50 was more than 1000 nM.

Regarding `O=C(NO)c1cccc2c1CC1(CCN(C3CC3)CC1)C2` [II-63, 1′-cyclopropyl-N-hydroxy-1,3-dihydrospiro[indene-2,4′-piperidine]-4-carboxamide], the IC50 is more than 1000 nM. For `O=C(NO)c1cccc2c1CC1(CCN(Cc3ccccc3)CC1)C2` [II-64, 1′-benzyl-N-hydroxy-1,3-dihydrospiro[indene-2,4′-piperidine]-4-carboxamide], the IC50 was more than 1000 nM.

Turning to `O=C(NO)c1cccc2c1CC1(CCN(Cc3ccccc3)CC1)C2=O` [II-65, 1′-benzyl-N-hydroxy-1-oxo-1,3-dihydrospiro[indene-2,4′-piperidine]-4-carboxamide], the IC50 is more than 1000 nM. The value for `O=C(NO)c1cccc2c1CC1(CCN(Cc3ccccc3)CC1)C2O` (stereo not drawn) [II-66, 1′-benzyl-N,1-dihydroxy-1,3-dihydrospiro[indene-2,4′-piperidine]-4-carboxamide] was more than 1000 nM.

For the compound `O=C(NO)c1cccc2c1CC1(CC2)CCN(Cc2ccc(Cl)c(C(F)(F)F)c2)C1=O` (stereo not drawn) [II-67, 1′-(4-chloro-3-(trifluoromethyl)benzyl)-N-hydroxy-2′-oxo-3,4-dihydro-1H-spiro[naphthalene-2,3′-pyrrolidine]-8-carboxamide], the IC50 was less than 500 nM.
